{"source": "patent US20100120703A1", "about": "“COMPOSITIONS AND METHODS FOR TREATING CANCER” (priority 2007, published 2010)", "key": {"WRL-68 cells": {"system": "WRL-68 cells", "assay": "Neutral red cell viability assay", "format": "cell-based, human", "settings": "SIN up to 1,000 μM, 72 hours", "source_text": "(§1) The neutral red (NR) cytotoxicity assay is a chemosensitivity assay for measuring cell survival/viability, based on the ability of viable cells to incorporate and bind neutral red, a supravital dye. NR is a weak cationic dye that readily penetrates cell membranes by non-ionic diffusion, accumulating intracellularly in lysosomes, where it binds with anionic sites in the lysosomal matrix. Alterations of the cell surface or the sensitive lysosomal membrane lead to lysosomal fragility and other changes that gradually become irreversible. Such changes brought about by the action of xenobiotics result in a decreased uptake and binding of NR. It is thus possible to distinguish between viable, damaged, or dead cells. (Babich, H et al, 1990)\n(§2) Three different cell lines HepG2, WRL-68 and Clone 9 cell lines were used in the experiment. HepG2 is a human hepatoblastoma cell line. It is a well known cell model in anti-HCC studies (Alshatwi A A, et al, 2006). WRL-68 is a human normal liver embryo cell line that has a morphologic structure similar to hepatocytes and hepatic primary cultures (Gutierrez-Ruiz, et al, 1994). This cell line was used as the control. Clone 9 is the rat Sprague Dawley (SD) liver normal cell line. […]\n(§3) HepG2, WRL-68 and Clone 9 cells were grown in complete culture medium (RPMI or DMEM), trypsinized and washed. […] The color was measured at OD540nm."}, "HepG2 cells [1]": {"system": "HepG2 cells", "assay": "Neutral red cell viability assay", "format": "cell-based", "settings": "Homo sapiens", "source_text": "as §1\nThree different cell lines HepG2, WRL-68 and Clone 9 cell lines were used in the experiment. HepG2 is a human hepatoblastoma cell line. It is a well known cell model in anti-HCC studies (Alshatwi A A, et al, 2006). WRL-68 is a human normal liver embryo cell line that has a morphologic structure similar to hepatocytes and hepatic primary cultures (Gutierrez-Ruiz, et al, 1994). This cell line was used as the control. Clone 9 is the rat Sprague Dawley (SD) liver normal cell line. In the in vivo studies, sinigrin (SIN) would be applied to the SD rat animal model. The employment of this cell line in the cell viability study was to test if SIN would be toxic in the rat animal model.\nHepG2, WRL-68 and Clone 9 cells were grown in complete culture medium (RPMI or DMEM), trypsinized and washed. Ten thousand cells of each cell type were seeded in 96-well plates. After 24 hours of pre-incubation, cells were treated with different concentrations of SIN and incubated for 72 hours. After incubation, cells were harvested and washed twice with 1×PBS buffer. Fifty microliters of Neutral Red solution were added to each well. The whole plate was placed into an incubator at 37° C. with 5% CO2. After incubation for 1 hour, the plate was washed twice with 1×PBS buffer, and completely dried in a 60° C. oven overnight. […] The color was measured at OD540nm."}, "Clone 9 cells": {"system": "Clone 9 cells", "assay": "Neutral red cell viability assay", "format": "cell-based, rat", "settings": "SIN up to 1,000 μM, 72 hours", "source_text": "as §1, §2, §3"}, "HepG2 cells [2]": {"system": "HepG2 cells", "assay": "Cell cycle analysis by flow cytometry (PI)", "format": "cell-based, human", "protocol": "Flow Cytometery is a rapid and quantitative method for measuring certain physical and chemical characteristics of cells or particles as they travel in suspension through a sensor. When the cell is labeled with propidium iodide (PI), the DNA content can be measured which is used to determine the stage of the cell cycle. When cell cycles are obtained, a cell cycle map can be recorded.\nHepG2 cells were trypsinized, washed and seeded into […] culture plates in complete RPMI medium. After 24 hours of pre-incubation, different concentrations (250 μM and 500 μM) of SIN were added to the culture plates. The complete RPMI medium was added to one plate containing control cells. After different periods of incubation with SIN, cells were harvested, the medium was removed from the culture plate and the plate was washed twice with 2 ml of 1×PBS buffer. All of the solutions were collected, and the cells were trypsinized and collected. The whole solution was centrifuged at 1,000 rpm for 3 minutes. The supernatant was removed and the cell pellet was resuspended in 1 ml 1×PBS buffer for washing. […]\nThe cell pellet was resuspended in 1 ml of 70% ethanol and 0.1 ml of 1×PBS buffer. […] DNA content was analyzed using an FACScan Flow cytometry with sufficient Sheath Fluid. The results were analyzed by the FCS express software produced by the De Novo Software Company."}, "[3]": {"settings": "HepG2, 72 h, read-out: viability of HepG2 cells"}}}
{"smiles": "C=CC/C(=N/OS(=O)(=O)[O-])S[C@@H]1OC(CO)[C@@H](O)C(O)C1O.[K+]", "note": "(stereo partly shown) [SIN, sinigrin]", "values": [{"measurement": "cell viability of WRL-68 cells (healthy liver cells)", "setting": "WRL-68 cells", "result": "no decrease in cell viability was observed"}, {"measurement": "viability at 25 µM", "setting": "HepG2 cells [1]; [3]", "result": "~70", "unit": "%"}, {"measurement": "viability at 1000 µM", "setting": "HepG2 cells [1]; [3]", "result": "~35", "unit": "%"}, {"measurement": "IC50", "setting": "HepG2 cells [1]; HepG2, 72 hours, neutral red", "result": "< 250", "unit": "µM"}, {"measurement": "cell viability of Clone 9 cells (healthy liver cells)", "setting": "Clone 9 cells", "result": "no decrease in cell viability was observed"}, {"measurement": "cells arrested in sub G1 phase vs untreated cells", "setting": "HepG2 cells [2]; 0.5 mM SIN, 96 hours", "result": "the increase of the cells arrested in sub G1 phase becomes very obvious"}, {"measurement": "cell cycle effect in HepG2 cells", "setting": "HepG2 cells [2]; SIN treatment, 24-96 hours", "result": "G0/G1 phase arrest"}]}
